For experiment [1], the target named is recombinant human Mcl-1 (residues 171-327) / Bim interaction (Homo sapiens (Human), UniProt Q07820). Description: biochemical. In kind it is binding. The conditions noted are these: read-out: Mcl-1 HTRF IC50. For orientation: Time-resolved FRET reads energy transfer from a long-lived donor to a nearby acceptor.
For experiment [2], the system named is human multiple myeloma cell line, OPM-2. Description: Cell viability assay (OPM-2 10 FBS), CellTiter-Glo. In kind it is cell-based. In short, it runs like this: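 Steps: plate cells at 3000/well in 10% FBS growth medium, add serially diluted compound, incubate 16 h at 37 °C with 5% CO2, add detection reagent and read luminescence after 25 min. A 4-parameter logistic model gives IC50.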
A general note: Cellular ATP, detected with luciferase, serves as a proxy for viable cell number.

The mark [3] stands for this setting: TR-FRET, Mcl-1(171-327) / biotin-Bim (51-76).
[4] abbreviates: read-out: OPM-2 10% FBS IC50 IP, OPM-2 cells, 10% FBS, 16 h, CellTiter-Glo.
The mark [5] stands for this setting: Homo sapiens, OPM-2, 16 h, read-out: OPM-2 10% FBS IC50 IP, OPM-2 cells, 10% FBS, 16 h, CellTiter-Glo.
The mark [6] stands for this setting: 0.1 nM Mcl-1(171-327), 0.05 nM biotin-Bim (51-76).
The mark [7] stands for this setting: Homo sapiens, OPM-2, 16 h, read-out: OPM-2 10% FBS IC50 IP, OPM-2 cells, 10% FBS, 16 h incubation.

Read-outs that look alike come from different tables or passages of the source.

recombinant human Mcl-1 (residues 171-327) / Bim interaction, sequence (Q07820 171-327): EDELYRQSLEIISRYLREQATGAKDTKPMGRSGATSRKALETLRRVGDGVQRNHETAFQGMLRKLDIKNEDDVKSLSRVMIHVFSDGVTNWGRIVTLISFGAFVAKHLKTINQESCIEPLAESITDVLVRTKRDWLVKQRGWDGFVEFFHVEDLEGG

In general, IC50 refers to the concentration that gives 50% inhibition. Turning to `C[C@@H]1[C@@H](C)C/C=C/[C@@](O)(CC(=O)N(C)C)[C@@H]2CC[C@H]2CN2C[C@@]3(CCCc4cc(Cl)ccc43)COc3ccc(cc32)C(=O)NS1(=O)=O` [Example 100078, 2-((1S,3′R,6′R,7′S,8′E,11′S,12′R)-6-chloro-7′-hydroxy-11′,12′-dimethyl-13′,13′-dioxido-15′-oxo-3,4-dihydro-2H-spiro[naphthalene-1,22′-[20]oxa[13]thia[1,14]diazatetracyclo [14.7.2.0~3,6~.0~19,24~]pentacosa[8,16,18,24]tetraen]-7′-yl)-N,N-dimethylacetamide], the IC50 in experiment [1] (setting [3]) amounted to 0.409 nM; in experiment [2] (setting [4]), 2720 nM.

Turning to `CO[C@@]1(c2cccc(F)n2)/C=C/C[C@H](C)[C@@H](C)S(=O)(=O)NC(=O)c2ccc3c(c2)N(C[C@@H]2CC[C@H]21)C[C@@]1(CCCc2cc(Cl)ccc21)CO3` (single isomer, unassigned) [Example 100339], the IC50 in experiment [1] (setting [3]) is 0.186 nM; in experiment [2] (setting [5]), 1380 nM.

`CO[C@@]1(CC(=O)N2CCN(C)C[C@H]2C)/C=C/C[C@H](C)[C@@H](C)S(=O)(=O)NC(=O)c2ccc3c(c2)N(C[C@@H]2CC[C@H]21)C[C@@]1(CCCc2cc(Cl)ccc21)CO3` (single isomer, unassigned) [Example 100479]: the IC50 in experiment [1] (setting [3]) came to 0.758 nM; in experiment [2] (setting [4]) it was 332 nM.

With `C[C@@H]1[C@@H](C)CCC[C@]2(OC[C@@H](N(C)C)CO2)[C@@H]2CC[C@H]2CN2C[C@@]3(CCCc4cc(Cl)ccc43)COc3ccc(cc32)C(=O)NS1(=O)=O` [Example 100227], the IC50 in experiment [1] (setting [3]) worked out at 0.423 nM; in experiment [2] (setting [5]), 191 nM.

In the case of “(1 S,3′R,6′R,7′S,8′E, 11′S,12′R)-6-chloro-11′,12′-dimethyl-7′-(2-methylpropoxy)-7′-((4-(3-oxetanyl)-1-piperazinyl)methyl)-3,4-dihydro-2H,15′H-spiro[naphthalene-1,22′-[20]oxa[13]thia[1,14]diazatetracyclo[14.7.2.0-3,6˜.0˜19,24˜]pentacosa[8,16,18,24]tetraen]-15′-one 13′,13′-dioxide [Example 348]”, the IC50 in experiment [1] (setting [6]) was found to be 2.62 nM; in experiment [2] (read-out: OPM-2 10% FBS IC50 IP, OPM-2 cells, 10% FBS, 16 h incubation), 5360 nM.

As to `C[C@@H]1[C@@H](C)C/C=C/[C@](O)(c2cccnc2)[C@@H]2CC[C@H]2CN2C[C@@]3(CCCc4cc(Cl)ccc43)COc3ccc(cc32)C(=O)NS1(=O)=O` (single isomer, unassigned) [Example 100183], the figures for the IC50 in experiment [1] (setting [3]) and in experiment [2] (setting [5]) were 1.34 nM and 2240 nM, respectively.

As for `CO[C@]1(CN2C[C@@H]3C[C@H]2CN3C(C)C)/C=C/C[C@H](C)[C@@H](C)S(=O)(=O)NC(=O)c2ccc3c(c2)N(C[C@@H]2CC[C@H]21)C[C@@]1(CCCc2cc(Cl)ccc21)CO3` [Example 315, (1S,3′R,6′R,7′R,8′E,11′S,12′R)-6-chloro-7′-methoxy-11′,12′-dimethyl-7′-(((1S,4S)-5-(1-methylethyl)-2,5-diazabicyclo[2.2.1]hept-2-yl)methyl)-3,4-dihydro-2H,15′H-spiro[naphthalene-1,22′-[20]oxa[13]thia[1,14]diazatetracyclo [14.7.2.0~3,6~.0~19,24~]pentacosa[8,16,18,24]tetraen]-15′-one 13′,13′-dioxide], the IC50 in experiment [1] (setting [6]) amounted to 0.122 nM; in experiment [2] (setting [7]), 124 nM.

As to `C[C@@H]1[C@@H](C)CCC[C@@]2(COCCN2)[C@@H]2CC[C@H]2CN2C[C@@]3(CCCc4cc(Cl)ccc43)COc3ccc(cc32)C(=O)NS1(=O)=O` [Example 100269, (1S,3′R,6′R,7′S,11′S,12′R)-6-chloro-11′,12′-dimethyl-3,4-dihydro-2H,15′H-dispiro[naphthalene-1,22′-[20]oxa[13]thia[1,14]diazatetracyclo [14.7.2.0~3,6~.0~19,24~]pentacosa[16,18,24]triene-7′,3″-[1,4]oxazinan]-15′-one 13′,13′-dioxide], the IC50 amounted to 0.908 nM in experiment [1] (setting [3]) and 1230 nM in experiment [2] (setting [5]).

Turning to `C[C@@H]1[C@@H](C)C/C=C/[C@](O)(c2ccccn2)[C@@H]2CC[C@H]2CN2C[C@@]3(CCCc4cc(Cl)ccc43)COc3ccc(cc32)C(=O)NS1(=O)=O` [Example 100180, (1S,3′R,6′R,7′R,8′E,11′S,12′R)-6-chloro-7′-hydroxy-11′,12′-dimethyl-7′-(2-pyridinyl)-3,4-dihydro-2H,15′H-spiro[naphthalene-1,22′-[20]oxa[13]thia[1,14]diazatetracyclo [14.7.2.0~3,6~.0~19,24~]pentacosa[8,16,18,24]tetraen]-15′-one 13′,13′-dioxide], the IC50 in experiment [1] (setting [3]) worked out at 4.92 nM; in experiment [2] (setting [5]), 4420 nM.

Regarding `C[C@@H]1[C@@H](C)C/C=C/[C@@](O)(C#CCN2CCOCC2)[C@@H]2CC[C@H]2CN2C[C@@]3(CCCc4cc(Cl)ccc43)COc3ccc(cc32)C(=O)NS1(=O)=O` [Example 100320, (1S,3′R,6′R,7′S,8′E,11′S,12′R)-6-chloro-7′-hydroxy-11′,12′-dimethyl-7′-(3-(4-morpholinyl)-1-propyn-1-yl)-3,4-dihydro-2H,15′H-spiro[naphthalene-1,22′-[20]oxa[13]thia[1,14]diazatetracyclo [14.7.2.0~3,6~.0~19,24~]pentacosa[8,16,18,24]tetraen]-15′-one 13′,13′-dioxide], the IC50 in experiment [1] (setting [3]) came to 1.2 nM; in experiment [2] (setting [4]) it was 2140 nM.

Turning to `CO[C@@]1(CCN2CCN(C)C(=O)C2)/C=C/C[C@H](C)[C@@H](C)S(=O)(=O)NC(=O)c2ccc3c(c2)N(C[C@@H]2CC[C@H]21)C[C@@]1(CCCc2cc(Cl)ccc21)CO3` [Example 100430, (1S,3′R,6′R,7′S,8′E,11′S,12′R)-6-chloro-7′-methoxy-11′,12′-dimethyl-7′-(2-(4-methyl-3-oxo-1-piperazinyl)ethyl)-3,4-dihydro-2H,15′H-spiro[naphthalene-1,22′-[20]oxa[13]thia[1,14]diazatetracyclo [14.7.2.0~3,6~.0~19,24~]pentacosa[8,16,18,24]tetraen]-15′-one 13′,13′-dioxide], the IC50 is 0.057 nM in experiment [1] (setting [3]) and 358 nM in experiment [2] (setting [5]).

For the molecule `COCCN(C)S(=O)(=O)C[C@]1(O)CCC[C@H](C)[C@@H](C)S(=O)(=O)NC(=O)c2ccc3c(c2)N(C[C@@H]2CC[C@H]21)C[C@@]1(CCCc2cc(Cl)ccc21)CO3` [Example 100166, 1-((1S,3′R,6′R,7′S,11′S,12′R)-6-chloro-7′-hydroxy-11′,12′-dimethyl-13′,13′-dioxido-15′-oxo-3,4-dihydro-2H-spiro[naphthalene-1,22′-[20]oxa[13]thia[1,14]diazatetracyclo [14.7.2.0~3,6~.0~19,24~]pentacosa[16,18,24]trien]-7′-yl)-N-(2-methoxyethyl)-N-methylmethanesulfonamide], the results for the IC50 in experiment [1] (setting [3]) and in experiment [2] (setting [4]) were 1.77 nM and 945 nM, respectively.

As to `CC[C@@H]1CC/C=C/[C@@](CN2CCN3CCCC[C@@H]3C2)(OC)[C@@H]2CC[C@H]2CN2C[C@@]3(CCCc4cc(Cl)ccc43)COc3ccc(cc32)C(=O)NS1(=O)=O` [Example 32, (1S,3′R,6′R,7′R,8′E,12′R)-6-chloro-12′-ethyl-7′-methoxy-7′-((9aR)-octahydro-2H-pyrido[1,2-a]pyrazin-2-ylmethyl)-3,4-dihydro-2H,15′H-spiro[naphthalene-1,22′-[20]oxa[13]thia[1,14]diazatetracyclo [14.7.2.0~3,6~.0~19,24~]pentacosa[8,16,18,24]tetraen]-15′-one 13′,13′-dioxide], the IC50 in experiment [1] (setting [6]) is 0.128 nM; in experiment [2] (setting [7]) it was 147 nM.

As for `C[C@@H]1[C@@H](C)CCC[C@@](O)(CC(=O)N2CCOC2=O)[C@@H]2CC[C@H]2CN2C[C@@]3(CCCc4cc(Cl)ccc43)COc3ccc(cc32)C(=O)NS1(=O)=O` [Example 100153, (1S,3′R,6′R,7′R,11′S,12′R)-6-chloro-7′-hydroxy-11′,12′-dimethyl-7′-(2-oxo-2-(2-oxo-1,3-oxazolidin-3-yl)ethyl)-3,4-dihydro-2H,15′H-spiro[naphthalene-1,22′-[20]oxa[13]thia[1,14]diazatetracyclo [14.7.2.0~3,6~.0~19,24~]pentacosa[16,18,24]trien]-15′-one 13′,13′-dioxide], the IC50 in experiment [1] (setting [3]) was found to be 0.738 nM; in experiment [2] (setting [4]), 4660 nM.

As to `CO[C@]1(CN2C[C@@H](C)N(C(C)C)[C@H](C)C2)/C=C/C[C@H](C)[C@@H](C)S(=O)(=O)NC(=O)c2ccc3c(c2)N(C[C@@H]2CC[C@H]21)C[C@@]1(CCCc2cc(Cl)ccc21)CO3` [Example 343, (1S,3′R,6′R,7′R,8′E,11′S,12′R)-6-chloro-7′-(((3R,5R)-3,5-dimethyl-4-(1-methylethyl)-1-piperazinyl)methyl)-7′-methoxy-11′,12′-dimethyl-3,4-dihydro-2H,15′H-spiro[naphthalene-1,22′-[20]oxa[13]thia[1,14]diazatetracyclo [14.7.2.0~3,6~.0~19,24~]pentacosa[8,16,18,24]tetraen]-15′-one 13′,13′-dioxide], the IC50 in experiment [1] (setting [6]) worked out at 0.093 nM; in experiment [2] (setting [7]), 94 nM.

Regarding `C[C@@H]1[C@@H](C)CCC[C@@](O)(Cc2nccn2C)[C@@H]2CC[C@H]2CN2C[C@@]3(CCCc4cc(Cl)ccc43)COc3ccc(cc32)C(=O)NS1(=O)=O` [Example 100162, (1S,3′R,6′R,7′R,11′S,12′R)-6-chloro-7′-hydroxy-11′,12′-dimethyl-7′-((1-methyl-1H-imidazol-2-yl)methyl)-3,4-dihydro-2H,15′H-spiro[naphthalene-1,22′-[20]oxa[13]thia[1,14]diazatetracyclo [14.7.2.0~3,6~.0~19,24~]pentacosa[16,18,24]trien]-15′-one 13′,13′-dioxide], the values for the IC50 in experiment [1] (setting [3]) and in experiment [2] (setting [4]) were 3.47 nM and 2870 nM, respectively.

Source of the values: US10821115B2, “Compounds that inhibit Mcl-1 protein” (priority 2017, dated 2020).
